Measurements reported in patent US9895324B2, “Halogenated diarylacetylenes and methods of treating cancer” (UNIVERSITY OF KENTUCKY RESEARCH FOUNDATION, priority 2014, dated 2018).
Entries after “also recorded” stand apart in the source; their conditions may differ. Read-outs that look alike come from different tables or passages of the source.

How the values were obtained:
LS174T cells = assay: Cell proliferation assay, LS174T colon cancer cells; assay type: cell-based
Description: Cell Proliferation Assay.
LS174T cells were grown in RPMI medium (Mediatech) supplemented with 5% fetal bovine serum and 1% penicillin/streptomycin. For cell proliferation assays, 3×10^4 cells/well growing in 12-well plates were treated with DMSO or inhibitors. The cell numbers and viability were analyzed by Vi-Cell Cell Viability Analyzer after 4 days. The IC50 values were calculated with GraphPad Prim 5.

[1] = molecular target: catalytic subunit of methionine S-adenosyltransferase-2 (MAT-2) (Homo sapiens, UniProt P31153); conditions: cited from earlier work
catalytic subunit of methionine S-adenosyltransferase-2 (MAT-2), sequence (P31153 whole entry): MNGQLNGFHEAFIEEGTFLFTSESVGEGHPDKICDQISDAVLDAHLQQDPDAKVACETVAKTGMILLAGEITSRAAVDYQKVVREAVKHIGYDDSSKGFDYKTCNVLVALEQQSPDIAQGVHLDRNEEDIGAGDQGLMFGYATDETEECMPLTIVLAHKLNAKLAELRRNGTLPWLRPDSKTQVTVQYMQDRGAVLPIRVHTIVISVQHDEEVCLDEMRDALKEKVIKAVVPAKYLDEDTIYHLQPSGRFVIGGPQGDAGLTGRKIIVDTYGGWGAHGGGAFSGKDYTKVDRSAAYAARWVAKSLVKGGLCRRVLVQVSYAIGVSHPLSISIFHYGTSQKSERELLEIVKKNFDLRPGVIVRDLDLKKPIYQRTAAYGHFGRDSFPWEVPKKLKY

MAT2 = MAT2 (Homo sapiens, UniProt P31153); assay: MAT2A inhibition assay; assay type: biochemical; conditions: compared with stilbene 1
MAT2, sequence (P31153 whole entry): as above
Source text: We reported previously that stilbenes repressed colon cancer cell proliferation by inhibiting c-myc expression and inducing the cell cycle inhibitor, p21(Wif1/Cip1). See Zhang et al. J Med Chem 2011: 54:1288-1297. The similarity of the diarylacetylenes to the stilbenes also prompted an in silico modeling study of the binding of (E)-4-(2′,6′-difluorostyryl)-N,N-dimethylaniline (1) and 4((2,6-difluorophenyl)ethynyl)-N,N-dimethylaniline (2m). It was believed that para-oriented amino-substituents, such as the N-methylamino and N,N-dimethylamino groups, were associated with potent MAT2A inhibition. […] Variability in the MAT2A inhibition assay made the measurement of c-myc inhibition a preferred analytical tool for assessing the potency of diarylacetylenes.

[2] = Homo sapiens, LS174T, 96 h, 4 days, read-out: Inhibition of LS174T Cell Proliferation IC50
[3] = 4 days, read-out: Inhibition of LS174T Cell Proliferation IC50

Structure (SMILES): CN(C)c1ccc(C#Cc2cccc(F)c2)cc1 [Compound 2f, 4-((3-Fluorophenyl)ethynyl)-N,N-dimethylaniline]
- Potency as inhibitor of LS174T cell proliferation (in words) (LS174T cells): significantly less active
- IC50 (LS174T cells; [2]): > 3000 nM
- melting point: 99 to 100 °C

Structure (SMILES): CN(C)c1ccc(C#Cc2c(Cl)cccc2Cl)cc1 [Compound 2o, 4-((2,6-Dichlorophenyl)ethynyl)-N,N-dimethylaniline]
- IC50 (LS174T cells; [2]): 52 ± 7.1 nM
- melting point: 96 to 98 °C

Structure (SMILES): CN(C)c1ccc(C#Cc2cc(F)cc(F)c2)cc1 [Compound 2k, 4-((3,5-Difluorophenyl)ethynyl)-N,N-dimethylaniline]
- Potency as inhibitor of LS174T cell proliferation (in words) (LS174T cells): significantly less active
- IC50 (LS174T cells; [2]): > 3000 nM
- melting point: 72 to 74 °C

Structure (SMILES): CN(C)c1ccc(C#Cc2ccccc2F)cc1 [Compound 2d, 4-((2-Fluorophenyl)ethynyl)-N,N-dimethylaniline]
- IC50 (LS174T cells; [3]): 39 ± 6 nM
- IC50 (LS174T cells; [2]): < 50 nM
- melting point: 94 to 96 °C

Structure (SMILES): CN(C)c1ccc(C#Cc2ccccc2)cc1 [Compound 2c, N,N-Dimethyl-4-(phenylethynyl)aniline]
- Potency as inhibitor of LS174T cell proliferation (in words) (LS174T cells): very low potency
- IC50 (LS174T cells; [2]): > 3000 nM
- melting point: 104 to 106 °C

Structure (SMILES): Nc1ccc(C#Cc2c(F)cccc2F)cc1 [Compound 2a, 4-((2,6-Difluorophenyl)ethynyl)aniline]
- IC50 (LS174T cells; [2]): 55 ± 7.8 nM
- IC50 (LS174T cells; Homo sapiens, LS174T, read-out: IC50 (inhibition of LS174T cell proliferation)): 55 ± 7.8 nM
- melting point: 104 to 105 °C

Structure (SMILES): CN(C)c1ccc(C#Cc2ccc(F)c(F)c2)cc1 [Compound 2j, 4-((3,4-Difluorophenyl)ethynyl)-N,N-dimethylaniline]
- Potency as inhibitor of LS174T cell proliferation (in words) (LS174T cells): significantly less active
- IC50 (LS174T cells; [2]): > 3000 nM
- melting point: 100 to 101 °C

Structure (SMILES): CN(C)c1ccc(C#Cc2ccc(F)cc2)cc1 [Compound 2g, 4-((4-Fluorophenyl)ethynyl)-N,N-dimethylaniline]
- Potency as inhibitor of LS174T cell proliferation (in words) (LS174T cells): very low potency; also recorded: significantly less active
- IC50 (LS174T cells; [2]): > 3000 nM
- melting point: 132 to 134 °C

Structure (SMILES): CN(C)c1ccc(C#Cc2cc(F)ccc2F)cc1 [Compound 2l, 4-((2,5-Difluorophenyl)ethynyl)-N,N-dimethylaniline]
- IC50 (LS174T cells; [2]): 55 ± 6 nM
- melting point: 106 to 107 °C

Structure (SMILES): CN(C)c1ccc(C#Cc2ccc(F)cc2F)cc1 [Compound 2i, 4-((2,4-Difluorophenyl)ethynyl)-N,N-dimethylaniline]
- IC50 (LS174T cells; [2]): 56 ± 8.1 nM
- melting point: 116 to 118 °C

Structure (SMILES): CNc1ccc(C#Cc2c(F)cccc2F)cc1 [Compound 2b, 4-((2,6-Difluorophenyl)ethynyl)-N-methylaniline]
- melting point: 69 to 70 °C

Structure (SMILES): CN(C)c1ccc(/C=C/c2c(F)cccc2F)cc1 [Compound 1, (E)-4-(2′,6′-difluorostyryl)-N,N-dimethylaniline, reference compound]
- IC50 (LS174T cells; [2]): 59 ± 7.5 nM
- Molecular target [1]: targeted exclusively the catalytic subunit of methionine S-adenosyltransferase-2 (MAT-2)

Structure (SMILES): CN(C)c1ccc(C#Cc2cccc(F)c2F)cc1 [Compound 2h, 4-((2,3-Difluorophenyl)ethynyl)-N,N-dimethylaniline]
- IC50 (LS174T cells; [2]): 119 ± 4.6 nM
- melting point: 104 to 106 °C

Structure (SMILES): CN(C)c1ccc(C#Cc2c(F)cccc2Cl)cc1 [Compound 2n, 4-((2-Chloro-6-fluorophenyl)ethynyl)-N,N-dimethylaniline]
- melting point: 86 to 88 °C

Structure (SMILES): CN(C)c1ccc(C#Cc2c(F)cccc2F)cc1 [Compound 2m, 4-((2,6-Difluorophenyl)ethynyl)-N,N-dimethylaniline]
- MAT2 inhibition (in words, data not shown) (MAT2): inhibited MAT2 at concentrations comparable to that of the stilbene 1

Structure (SMILES): CN(C)c1ccc(C#Cc2ccccc2Cl)cc1 [Compound 2e, 4-((2-Chlorophenyl)ethynyl)-N,N-dimethylaniline]
- IC50 (LS174T cells; [3]): 31 ± 3.1 nM
- IC50 (LS174T cells; [2]): < 50 nM
- melting point: 108 to 110 °C
